SMILES strings stand for the structures. Read-outs that look alike come from different tables or passages of the source.

The results in this text go back to patent US20120165319A1, “INHIBITORS OF INTERLEUKIN-1 BETA CONVERTING ENZYME” (VERTEX PHARMACEUTICALS INCORPORATED, priority 1995, published 2012).

Test [1] deals with IL-1β production, LPS-challenged mice. Put plainly: In vivo acute assay for efficacy as anti-inflammatory agent: LPS-induced IL-1β production in mice. Also noted: species or system mouse. The conditions noted are these: LPS challenged mice, compound PO, 50 mg/kg; for inhibition at 50 mg/kg: Mus musculus, po, read-out: percent inhibition of IL-1β production. As to the method: In Vivo Acute Assay for Efficacy as Anti-Inflammatory Agent
LPS-Induced IL-1β Production.
Efficacy of 214e and 217e was evaluated in CD1 mice (n=6 per condition) challenged with LPS (20 mg/kg IP). […] Blood was collected seven hours after LPS challenge. Serum IL-1β levels were measure by ELISA. […] Similar results were obtained in a second experiment. […] However, a clear dose response was not apparent.
Compounds 214e and 217e (50 mg/kg) were also administered by oral gavage to assess absorption.
The efficacy of analogs of 214e were also evaluated in LPS challenged mice after IP administration (FIG. 9) and PO administration (FIG. 10).
[…] The protocol is described in Example 7.

A further test deals with IL-1β, human whole blood. As to the kind of experiment: Whole blood assay for IL-1β production. The conditions noted are these: Table 17, read-out: Whole human blood IC50. In kind it is cell-based. The method in brief:
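IL-1β was quantified by ELISA in plasma diluted 1:200. The plasma came from EDTA-anticoagulated human whole blood incubated at 30 °C for 16-18 h with LPS (final 5.0 ng/ml) plus a saline serial dilution of compound. Controls were no-LPS, no-inhibitor and highest-vehicle.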

[2] abbreviates: administered 0 h relative to time of LPS challenge.
Setting [3] is: administered −2 h relative to time of LPS challenge.
[4] abbreviates: 0 h, administered 0 h relative to time of LPS challenge.
The mark [5] stands for this setting: 2 h, administered −2 h relative to time of LPS challenge.

The term IC50 denotes the concentration that inhibits the measured activity by half. Regarding `Cc1ccccc1C(=O)N[C@H]1CCC(=O)N2CCC[C@@H](C(=O)N[C@H]3CC(=O)OC3OCc3ccccc3)N2C1=O` (mixture of isomers) [Compound 213r, [1S,9S(2RS,3S)]N-(2-Benzyloxy-5-oxotetrahydrofuran-3-yl)-6,10-dioxo-1,2,3,4,7,8,9,10-octahydro-9-(2-toluoylamino)-6H-pyridazino[1,2-a][1,2]diazepine-1-carboxamide], the “percent inhibition of IL-1β production” value in test [1] (setting [2]) was 37%; in test [1] (setting [3]), 59%. The IC50 in the test on IL-1β, human whole blood is less than 300 nM.

Broadly, the inhibition is the drop in the measured response relative to a control, in per cent. For `CCOC1OC(=O)C[C@@H]1NC(=O)[C@@H]1CCCN2C(=O)CC[C@H](NC(=O)c3ccc(OC)cc3)C(=O)N12` (stereo partly drawn) [Compound 550i, [1S,9S(2RS,3S)]9-[(4-Methoxybenzoyl)amino]-6,10-dioxo-1,2,3,4,7,8,9,10-octahydro-N-(2-ethoxy-5-oxotetrahydrofuran-3-yl)-6H-pyridazino[1,2-a][1,2]diazepine-1-carboxamide], the inhibition at 50 mg/kg in test [1] (setting [4]) is 23%; in test [1] (setting [5]), -10%. Further, the IC50 in the test on IL-1β, human whole blood (Homo sapiens) is 1400 nM.

Take `CN(C)c1ccc(C(=O)N[C@H]2CCC(=O)N3CCC[C@@H](C(=O)N[C@H]4CC(=O)OC4OCc4ccccc4)N3C2=O)cc1` (mixture of isomers) [Compound 213f, [1S,9S(2RS,3S)]9-[(4-Dimethylaminobenzoyl)amino]-6,10-dioxo-1,2,3,4,7,8,9,10-octahydro-N-(2-Benzyloxy-5-oxotetrahydrofuran-3-yl)-6H-pyridazino[1,2-a][1,2]diazepine-1-carboxamide]: the “percent inhibition of IL-1β production” value is reported as 8% in test [1] (setting [2]) and “(−4) %” in test [1] (setting [3]). In the test with IL-1β, human whole blood, the IC50 is 3000 nM.

On to `CCOC1OC(=O)C[C@@H]1NC(=O)[C@@H]1CCCN2C(=O)CC[C@H](NC(=O)c3ccc(N(C)C)cc3)C(=O)N12` (stereo partly drawn) [Compound 550f, [1S,9S(2RS,3S)]9-[(4-Dimethylaminobenzoyl)amino]-6,10-dioxo-1,2,3,4,7,8,9,10-octahydro-N-(2-ethoxy-5-oxotetrahydrofuran-3-yl)-6H-pyridazino[1,2-a][1,2]diazepine-1-carboxamide], for which the inhibition at 50 mg/kg in test [1] (setting [4]) was 50%; in test [1] (setting [5]), 0%. Further, the IC50 with IL-1β, human whole blood (Homo sapiens) came out at 1100 nM.

For the compound `CCOC1OC(=O)C[C@@H]1NC(=O)[C@@H]1CCCN2C(=O)CC[C@H](NC(=O)c3ccc(NC(C)=O)c(Cl)c3)C(=O)N12` (stereo partly drawn) [Compound 550l, [1S,9S (2RS,3S)]9-[(3-Chloro-4-acetamidobenzoyl)amino]-6,10-dioxo-1,2,3,4,7,8,9,10-octahydro-N-(2-ethoxy-5-oxotetrahydrofuran-3-yl)-6H-pyridazino[1,2-a][1,2]diazepine-1-carboxamide], the inhibition at 50 mg/kg in test [1] (setting [4]) stood at 38%; in test [1] (setting [5]) it was 9%. The IC50 with IL-1β, human whole blood (Homo sapiens) worked out at 750 nM.

Consider `O=C1C[C@H](NC(=O)[C@@H]2CCCN3C(=O)CCN(NC(=O)c4ccc5c(c4)OCO5)C(=O)N23)C(OCc2ccccc2)O1` (stereo partly drawn) [Compound 264l, [4S(2RS,3S)]N-(2-Benzyloxy-5-oxotetrahydrofuran-3-yl)-6,10-dioxo-7-(3,4-methylenedioxybenzoylamino)-1,2,3,4,7,8,9,10-octahydro-6H-pyridazino[1,2-a][1,2,4]triazepine-4-carboxamide], for which the values for the inhibition at 50 mg/kg in test [1] (setting [4]) and in test [1] (setting [5]) were 23% and 0%, respectively. In addition, the IC50 with IL-1β, human whole blood (Homo sapiens) was found to be 3000 nM.

`COc1c(Cl)cc(C(=O)N[C@H]2CCC(=O)N3CCC[C@@H](C(=O)N[C@H]4CC(=O)OC4OCc4ccccc4)N3C2=O)cc1Cl` (stereo partly drawn) [Compound 213m, [1S,9S(2RS,3S)]9-[(3,5-Dichloro-4-methoxybenzoyl)amino]-6,10-dioxo-1,2,3,4,7,8,9,10-octahydro-N-(2-Benzyloxy-5-oxotetrahydrofuran-3-yl)-6H-pyridazino[1,2-a][1,2]diazepine-1-carboxamide]: the inhibition at 50 mg/kg in test [1] (setting [4]) is 42%; in test [1] (setting [5]), 26%. Moreover, the IC50 in the test with IL-1β, human whole blood (Homo sapiens) is 2500 nM.

As for `O=C1C[C@H](NC(=O)[C@@H]2CCCN3C(=O)CC[C@H](NC(=O)c4cc5ccccc5[nH]4)C(=O)N23)C(OCc2ccccc2)O1` (mixture of isomers) [Compound 213q, [1S,9S(2RS,3S)]N-(2-Benzyloxy-5-oxotetrahydrofuran-3-yl)-6,10-dioxo-9-(indol-2-oylamino)-1,2,3,4,7,8,9,10-octahydro-6H-pyridazino[1,2-a][1,2]diazepine-1-carboxamide], the “percent inhibition of IL-1β production” value in test [1] (setting [2]) was determined as 91%; in test [1] (setting [3]), 17%. For the same compound, in the test with IL-1β, human whole blood, the IC50 was less than 300 nM.

As to `O=C1C[C@H](NC(=O)[C@@H]2CCCN3C(=O)CC[C@H](NC(=O)c4ccc(O)cc4)C(=O)N23)C(OCc2ccccc2)O1` (mixture of isomers) [Compound 213p, [1S,9S (2RS,3S)]N-(2-Benzyloxy-5-oxotetrahydrofuran-3-yl)-6,10-dioxo-9-(4-hydroxybenzoyl)amino-1,2,3,4,7,8,9,10-octahydro-6H-pyridazino[1,2-a][1,2]diazepine-1-carboxamide], the “percent inhibition of IL-1β production” value was 29% in test [1] (setting [2]) and 21% in test [1] (setting [3]). Further, the IC50 in the test with IL-1β, human whole blood is less than 300 nM.

In the case of `CCOC1OC(=O)C[C@@H]1NC(=O)[C@@H]1CCCN2C(=O)CC[C@H](NC(=O)c3cccc(NC(C)=O)c3)C(=O)N12` (stereo partly drawn) [Compound 550n, [1S,9S (2RS,3S)]9-(3-Acetamido) benzoylamino-6,10-dioxo-N-(2-ethoxy-5-oxo-tetrahydrofuran-3-yl)-1,2,3,4,7,8,9,10-octahydro-6H-pyridazino[1,2-a][1,2]diazepine-1-carboxamide], the figures for the inhibition at 50 mg/kg in test [1] (setting [4]) and in test [1] (setting [5]) were 65% and 19%, respectively. In addition, the IC50 in the test with IL-1β, human whole blood (Homo sapiens) is less than 300 nM.

For `O=C1C[C@H](NC(=O)[C@@H]2CCCN3C(=O)CC[C@H](NC(=O)c4nccc5ccccc45)C(=O)N23)C(OCc2ccccc2)O1` (mixture of isomers) [Compound 213y, [1S,9S(2RS,3S)]N-(2-Benzyloxy-5-oxotetrahydrofuran-3-yl)-6,10-dioxo-9-(isoquinolin-1-oylamino)-1,2,3,4,7,8,9,10-octahydro-6-H-pyridazino[1,2-a][1,2]diazepine-1-carboxamide], the “percent inhibition of IL-1β production” value in test [1] (setting [2]) was found to be 50%; in test [1] (setting [3]), 29%. Moreover, the IC50 in the test on IL-1β, human whole blood came out at 930 nM.

As to `Nc1ccc(C(=O)N[C@H]2CCC(=O)N3CCC[C@@H](C(=O)N[C@H]4CC(=O)OC4OCc4ccccc4)N3C2=O)cc1Cl` (mixture of isomers) [Compound 213h, [1S,9S (2RS,3S)]9-[(3-Chloro-4-aminobenzoyl)amino]-6,10-dioxo-1,2,3,4,7,8,9,10-octahydro-N-(2-Benzyloxy-5-oxotetrahydrofuran-3-yl)-6H-pyridazino[1,2-a][1,2]diazepine-1-carboxamide], the entries for the “percent inhibition of IL-1β production” value in test [1] (setting [2]) and in test [1] (setting [3]) were 53% and 9%, respectively. For the same compound, in the test on IL-1β, human whole blood, the IC50 stood at 1500 nM.
